{"source": "patent US20100062997A1", "about": "“USE OF IDRAPARINUX FOR EXTENDED PROPHYLAXIS OF THROMBOEMBOLISM” (SANOFI-AVENTIS, priority 2008, published 2010)", "key": {"[1]": {"system": "patients with confirmed, symptomatic DVT or PE treated for 6 months with a VKA or idraparinux", "assay": "Double-blind, placebo-controlled study of 6 months extended thromboprophylaxis: symptomatic recurrent VTE", "format": "in vivo", "experimental": "(§1) A double-blind, placebo-controlled study evaluated patients who had completed 6 months of initial treatment for deep venous thrombosis (hereafter “DVT”) or pulmonary embolism (hereafter “PE”) and who were then randomly assigned to receive an additional 6 months of prophylaxis with idraparinux. The efficacy of this method of thromboprophylaxis was evaluated in these patients.\nEligible patients were those aged above or equal to 18 years, with confirmed, symptomatic DVT or PE and who had been treated for 6 months with a VKA (acenocoumarol or warfarin), either in previous van Gogh studies (see The van Gogh Investigators, N. Engl. J. Med., 2007, 357, 1094-104) or outside these studies, or with idraparinux (in van Gogh studies).\nThe diagnostic criteria for DVT were a calf trifurcation or a more proximal vein that were noncompressible on ultrasonography or an intraluminal filling defect on venography. For PE, the diagnostic criteria were an intraluminal filling defect in subsegmental or more proximal pulmonary arteries on spiral computed tomography (CT) or conventional pulmonary angiography, a high-probability finding on a ventilation-perfusion lung scan, or a nondiagnostic finding on a lung scan with objectively documented DVT (H. R. Büller et al., Ann. Intern. Med., 2004, 140, 867-73; The Matisse Investigators, N. Engl. J. Med., 2003, 349, 1695-702).\nPatients were ineligible if they met one or more of the following criteria: an indication to continue anticoagulant therapy for the index DVT or PE beyond 6 months, other indications for prophylaxis with a VKA, pregnancy or breast-feeding, a creatinine clearance of less than 10 ml per minute, severe hepatic disease, bacterial endocarditis, active bleeding or a high risk of bleeding, uncontrolled hypertension (systolic blood pressure above 180 mm Hg or diastolic blood pressure above 110 mm Hg), or a life expectancy of less than 3 months.\nPatients were randomized, with stratification according to study center and to the anticoagulant treatment received in the 6 months before randomization (idraparinux within the van Gogh studies or VKA within or outside the van Gogh studies). Randomization was to be performed not more than 1 hour before the administration of the first dose of the study drug.\n(§2) Patients received a once-weekly subcutaneous dose of 2.5 mg of idraparinux or placebo with an identical appearance for 6 months (26 injections). In patients who had received idraparinux before randomization, the first dose of idraparinux or placebo was given 6 to 8 days after the last injection of the drug. In patients who had received a VKA before randomization, the first dose was given when the international normalized ratio (INR) was 3.0 or less. For patients with a creatinine clearance of less than 30 ml/min., the weekly idraparinux dose was 1.5 mg, with a first dose of 2.5 mg in patients who had received a VKA before randomization.\nAll patients were contacted after 1 week and at 3 and 6 months. […] At each contact, symptoms and signs of recurrent VTE were investigated.\nAll suspected outcome events were reviewed and classified by a central adjudication committee, whose members were unaware of study-group assignment.\nThe primary efficacy outcome was the incidence of symptomatic recurrence of VTE, defined as objectively documented recurrent PE, DVT or death attributed to PE. A diagnosis of recurrent VTE was accepted in the absence of an adequate objective test result if the investigator had treated the patient with therapeutic doses of heparin for more than 2 days or with a vena cava filter, thrombectomy or thrombolysis, or if recurrent VTE could not be ruled out. […]"}, "[2]": {"system": "patients with confirmed, symptomatic DVT or PE treated for 6 months with a VKA or idraparinux", "assay": "Same study, principal safety outcome: major bleeding", "format": "in vivo", "experimental": "as §1, §2\nThe principal safety outcome was major bleeding. […]\nAnalysis of the primary safety outcome, the incidence of major bleeding at 6 months, was performed with the use of the Mantel-Haenszel test, stratified according to the previous treatment. The effect of initial, prerandomization treatment on efficacy and safety was also analyzed. […]"}, "[3]": {"details": "idraparinux group, month 6 after randomization, counted in most severe category"}}}
{"smiles": "CO[C@H]1O[C@H](COS(=O)(=O)O)[C@@H](O[C@@H]2O[C@@H](C(=O)O)[C@@H](O[C@H]3O[C@H](COS(=O)(=O)O)[C@@H](O[C@@H]4O[C@H](C(=O)O)[C@@H](O[C@H]5O[C@H](COS(=O)(=O)O)[C@@H](OC)[C@H](OC)[C@H]5OC)[C@H](OC)[C@H]4OC)[C@H](OS(=O)(=O)O)[C@H]3OS(=O)(=O)O)[C@H](OC)[C@H]2OC)[C@H](OS(=O)(=O)O)[C@H]1OS(=O)(=O)O", "note": "[Idraparinux, idraparinux]", "values": [{"measurement": "symptomatic, objectively confirmed VTE (frequency of recurrent thromboembolism)", "setting": "[1]; idraparinux group, 6 of 594 patients, during the 6 months of randomly assigned treatment", "value": 1.0, "unit": "%"}, {"measurement": "recurrent VTE", "setting": "[1]; idraparinux group, 7 patients, further 6-month observation period after end of the additional 6 months of thromboprophylaxis, P=0.21 vs placebo", "value": 1.2, "unit": "%"}, {"measurement": "cumulative incidence of recurrent VTE (Kaplan-Meier)", "setting": "[1]; idraparinux group, 1 year after randomization, P=0.002 vs placebo", "value": 1.7, "unit": "%"}, {"measurement": "Type of recurrent event: DVT only", "setting": "[1]; [3]", "value": "3 number of patients"}, {"measurement": "Type of recurrent event: PE fatal", "setting": "[1]; [3]", "value": "2 number of patients"}, {"measurement": "Type of recurrent event: PE non fatal", "setting": "[1]; [3]", "value": "1 number of patients"}, {"measurement": "reduction in the relative risk of recurrent VTE", "setting": "[1]; idraparinux vs placebo, 6 months, 95% CI 33.5 to 88.8, P=0.002", "value": 72.7, "unit": "%"}, {"measurement": "Recurrent VTE, Odds Ratio (95% CI)", "setting": "[1]; idraparinux vs placebo, month 6 after randomization, all patients, adjusted according to treatment history, P 0.002", "value": "0.27 (0.11-0.66)"}, {"measurement": "Recurrent VTE, Odds Ratio (95% CI)", "setting": "[1]; idraparinux vs placebo, treatment before randomization: VKA outside study, month 6, P 0.004", "value": "0.09 (0.01-0.69)"}, {"measurement": "Recurrent VTE, Odds Ratio (95% CI)", "setting": "[1]; idraparinux vs placebo, treatment before randomization: VKA within study, month 6, P 0.02", "value": "0.20 (0.04-0.92)"}, {"measurement": "Recurrent VTE, Odds Ratio (95% CI)", "setting": "[1]; idraparinux vs placebo, treatment received before randomization: VKA, month 6, P <0.001", "value": "0.14 (0.04-0.48)"}, {"measurement": "Recurrent VTE, Odds Ratio (95% CI)", "setting": "[1]; idraparinux vs placebo, treatment received before randomization: idraparinux, month 6, P 0.68", "value": "1.58 (0.26-9.55)"}, {"measurement": "cumulative incidence of recurrent thromboembolism by treatment received before randomization (FIG. 1)", "setting": "[1]; placebo group, entire year after randomization, 268 patients who had received idraparinux in the 6 months before randomization", "value": "lowest"}, {"measurement": "frequency of recurrence (6-month recurrence rate) after discontinuation", "setting": "[1]; placebo group, substance = treatment received for 6 months before randomization", "value": "less than 1%"}, {"measurement": "major hemorrhage", "setting": "[2]; idraparinux group, 6 months of treatment, placebo 0%, P<0.001", "value": 1.9, "unit": "%"}, {"measurement": "major bleedings after discontinuation", "setting": "[2]; placebo group, patients who first received idraparinux, 6 months", "value": "without major bleedings"}]}
